Source: patent publication US6686450B1, “Immunosuppressive agents that inhibit calcineurin function and uses of these agents” (Massachusetts Institute of Technology, priority 1998, dated 2004)
“Also recorded” adds a separate entry of the source.

Experiments:
Format in all cases: cell-based
[1] = system: IL-2 promoter; test: IL-2 promoter activation in T cells expressing calcineurin mutant; settings: expressed in T cells
[2] = target: T1, interaction between Cabin 1-14 and full length calcineurin β2 (H160N) (Homo sapiens, UniProt P16298, H160N); test: mammalian two-hybrid assay in Jurkat T cells (luciferase reporter); settings: Jurkat T cells, PMA/ionomycin stimulated, drug added 30 min prior to stimulation
T1 construct: expressed in transfected cells; host or cells: Jurkat T cells
From the text: A mammalian two-hybrid system was established in Jurkat T cells by fusing calcineurin with the Gal4 DNA binding domain and Cabin 1-14 with the VP16 activation domain (Hsu et al., Proc. Natl. Acid Sci. USA 91:3181-3185 (1994)). The fusion plasmids for mammalian two-hybrid assays were constructed as follows: The cDNAs of calcineurin Aβ2 wild type and H160N mutant were fused to the GAL4 DB in the pM vector (obtained from Clontech, Palo Alto, Calif.) (pMCNβ2 and PMCNβ2 (H160N), and the cDNA of Cabin 1-14 was fused to the VP16 AD in the pVP16 vector (pVPCabin 1-14). Jurkat T cells were transfected with 5 μg of pMCβ2 or pMCβ2 (H160N), 5 μg of pVPCabin 1-14, 1 μg of pCMV-βGal, and 2 μg of pg5Luc, a luciferase reporter plasmid containing GAL4 promoter, by electroporation (960 μF, 250V). After 48 hr, cells were stimulated with 40 nM PMA and 2.5 μM ionomycin, either alone or in combination, for 6 hr before luciferase activity was measured for each sample. The luciferase reporter gene assay reagents were obtained from Promega, Madison, Wis., and the assay was performed per manufacturer's instructions. […] Where appropriate, the transfection efficiency was measured by co-transfecting 2 μg of CMV-driven β-galactosidase expression vector and measuring enzymatic β-galactosidase activity (Ausubel et al., Current Protocols in Molecular Biology (John Wiley & Sons, Inc., New York, 1994)).

[3] = system: IL-2 promoter; test: IL-2 promoter luciferase reporter gene assay in Jurkat T cells; settings: PMA and ionomycin

For “H 160N: catalytically inactive mutant of the β2 isoform of calcineurin, used as bait”, the “blocking of PMA and ionomycin-stimulated IL-2 promoter activation” value [1] was “over 60%”.
For bisindolylmaleimide, the “sensitivity of interaction between full length calcineurin β2 (H160N) and Cabin 1-14 to drug” value [2] was “inhibited the interaction between calcineurin and Cabin 1-14 in a dose-dependent manner; also recorded: sensitive”.
For “Cabin 1: isolated calcineurin binding polypeptide, amino acid sequence SEQ ID NO:1, 2220 amino acids”, the “effect on IL-2 reporter gene activation” value [3] was “lower potency” and the “effect on IL-2 reporter gene activation” value ([3]; listed as Cabin1) was “inhibit”.
With cyclosporin A [CsA] the “sensitivity of interaction between full length calcineurin β2 (H160N) and Cabin 1-14 to drug” value [2] was “sensitive”.
